Reference: PubChem BioAssay (NCI)
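Cultured in 96-well plates, cells were exposed to test compound for 48 hours across five concentrations. TGI denotes the concentration required for complete inhibition of growth.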

Assays:
Assay in all cases: growth of human tumour cells (NCI), 48 h
786-0 renal = test system: 786-0 renal
A498 renal = test system: A498 renal
A549 NSCLC = test system: A549 NSCLC
ACHN renal = test system: ACHN renal
BT-549 breast = test system: BT-549 breast
CAKI-1 renal = test system: CAKI-1 renal
CCRF-CEM leukemia = test system: CCRF-CEM leukemia
COLO 205 colon = test system: COLO 205 colon
DU-145 prostate = test system: DU-145 prostate
EKVX NSCLC = test system: EKVX NSCLC
HCC-2998 colon = test system: HCC-2998 colon
HCT-116 colon = test system: HCT-116 colon
HCT-15 colon = test system: HCT-15 colon
HL-60(TB) leukemia = test system: HL-60(TB) leukemia
HOP-62 NSCLC = test system: HOP-62 NSCLC
HOP-92 NSCLC = test system: HOP-92 NSCLC
HS 578T breast = test system: HS 578T breast
HT29 colon = test system: HT29 colon
IGROV1 ovarian = test system: IGROV1 ovarian
K-562 leukemia = test system: K-562 leukemia
KM12 colon = test system: KM12 colon
LOX IMVI melanoma = test system: LOX IMVI melanoma
M14 melanoma = test system: M14 melanoma
MALME-3M melanoma = test system: MALME-3M melanoma
MCF7 breast = test system: MCF7 breast
MDA-MB-231 breast = test system: MDA-MB-231 breast
MDA-MB-435 = test system: MDA-MB-435
MDA-N = test system: MDA-N
MOLT-4 leukemia = test system: MOLT-4 leukemia
NCI-H226 lung = test system: NCI-H226 lung
NCI-H23 lung = test system: NCI-H23 lung
NCI-H460 lung = test system: NCI-H460 lung
NCI-H522 lung = test system: NCI-H522 lung
NCI/ADR-RES ovarian = test system: NCI/ADR-RES ovarian
OVCAR-3 ovarian = test system: OVCAR-3 ovarian
OVCAR-4 ovarian = test system: OVCAR-4 ovarian
OVCAR-5 ovarian = test system: OVCAR-5 ovarian
OVCAR-8 ovarian = test system: OVCAR-8 ovarian
PC-3 prostate = test system: PC-3 prostate
RPMI-8226 leukemia = test system: RPMI-8226 leukemia
SF-268 CNS = test system: SF-268 CNS
SF-295 CNS = test system: SF-295 CNS
SF-539 CNS = test system: SF-539 CNS
SK-MEL-2 melanoma = test system: SK-MEL-2 melanoma
SK-MEL-28 melanoma = test system: SK-MEL-28 melanoma
SK-MEL-5 melanoma = test system: SK-MEL-5 melanoma
SK-OV-3 ovarian = test system: SK-OV-3 ovarian
SN12C renal = test system: SN12C renal
SNB-19 CNS = test system: SNB-19 CNS
SNB-75 CNS = test system: SNB-75 CNS
SR leukemia = test system: SR leukemia
SW-620 colon = test system: SW-620 colon
T-47D breast = test system: T-47D breast
U251 CNS = test system: U251 CNS
UACC-257 melanoma = test system: UACC-257 melanoma
UACC-62 melanoma = test system: UACC-62 melanoma
UO-31 renal = test system: UO-31 renal
TK-10 renal = test system: TK-10 renal

C=CC(OC(=O)C(C)C)c1ccc(OC(=O)C(C)C)cc1 (stereo not given)
TGI (786-0 renal): 18.9 µM
TGI (A498 renal): 31.6 µM
TGI (A549 NSCLC): 36.9 µM
TGI (ACHN renal): 28 µM
TGI (BT-549 breast): 31.2 µM
TGI (CAKI-1 renal): 10.2 µM
TGI (CCRF-CEM leukemia): 10.7 µM
TGI (COLO 205 colon): 27.6 µM
TGI (DU-145 prostate): > 100 µM
TGI (EKVX NSCLC): 39.3 µM
TGI (HCC-2998 colon): 26.7 µM
TGI (HCT-116 colon): 20.6 µM
TGI (HCT-15 colon): 20.2 µM
TGI (HL-60(TB) leukemia): 21 µM
TGI (HOP-62 NSCLC): 22.6 µM
TGI (HOP-92 NSCLC): 31.4 µM
TGI (HS 578T breast): > 100 µM
TGI (HT29 colon): 26.3 µM
TGI (IGROV1 ovarian): 32.7 µM
TGI (K-562 leukemia): 66.6 µM
TGI (KM12 colon): 5.16 µM
TGI (LOX IMVI melanoma): 16.6 µM
TGI (M14 melanoma): 21.4 µM
TGI (MALME-3M melanoma): 22 µM
TGI (MCF7 breast): 12.2 µM
TGI (MDA-MB-231 breast): 35.5 µM
TGI (MDA-MB-435): 26.4 µM
TGI (MDA-N): 25.9 µM
TGI (MOLT-4 leukemia): 49.7 µM
TGI (NCI-H226 lung): 39 µM
TGI (NCI-H23 lung): 51.4 µM
TGI (NCI-H460 lung): 30.9 µM
TGI (NCI-H522 lung): 3.56 µM
TGI (NCI/ADR-RES ovarian): 54.8 µM
TGI (OVCAR-3 ovarian): 31.1 µM
TGI (OVCAR-4 ovarian): 33.8 µM
TGI (OVCAR-5 ovarian): 20.2 µM
TGI (OVCAR-8 ovarian): 31.4 µM
TGI (PC-3 prostate): 21.9 µM
TGI (RPMI-8226 leukemia): 11.7 µM
TGI (SF-268 CNS): 62.2 µM
TGI (SF-295 CNS): 29.1 µM
TGI (SF-539 CNS): 30.7 µM
TGI (SK-MEL-2 melanoma): 24 µM
TGI (SK-MEL-28 melanoma): 23.8 µM
TGI (SK-MEL-5 melanoma): 30.6 µM
TGI (SK-OV-3 ovarian): 34 µM
TGI (SN12C renal): 30 µM
TGI (SNB-19 CNS): 28.2 µM
TGI (SNB-75 CNS): 28.6 µM
TGI (SR leukemia): > 100 µM
TGI (SW-620 colon): 20.7 µM
TGI (T-47D breast): 69.8 µM
TGI (U251 CNS): 15.3 µM
TGI (UACC-257 melanoma): 27.9 µM
TGI (UACC-62 melanoma): 31 µM
TGI (UO-31 renal): 30.9 µM

C=C1CC(C)(COc2cc(=O)oc3ccccc23)OC1=O (stereo not given)
TGI (786-0 renal): 11.8 µM
TGI (A498 renal): 8.74 µM
TGI (A549 NSCLC): 28.2 µM
TGI (ACHN renal): 15.8 µM
TGI (BT-549 breast): 7.89 µM
TGI (CAKI-1 renal): 6.32 µM
TGI (CCRF-CEM leukemia): 5.08 µM
TGI (COLO 205 colon): 5.81 µM
TGI (DU-145 prostate): 19 µM
TGI (EKVX NSCLC): 29.4 µM
TGI (HCC-2998 colon): 42.9 µM
TGI (HCT-116 colon): 9.64 µM
TGI (HCT-15 colon): 13 µM
TGI (HL-60(TB) leukemia): 4.83 µM
TGI (HOP-62 NSCLC): 42.1 µM
TGI (HOP-92 NSCLC): 3.54 µM
TGI (HS 578T breast): 30.8 µM
TGI (HT29 colon): 13.3 µM
TGI (IGROV1 ovarian): 12.5 µM
TGI (K-562 leukemia): 6.45 µM
TGI (KM12 colon): 27.3 µM
TGI (LOX IMVI melanoma): 11.5 µM
TGI (M14 melanoma): 2.95 µM
TGI (MALME-3M melanoma): 6.6 µM
TGI (MCF7 breast): 4.28 µM
TGI (MDA-MB-231 breast): 23.1 µM
TGI (MDA-MB-435): 17.7 µM
TGI (MDA-N): 16.3 µM
TGI (MOLT-4 leukemia): 7.15 µM
TGI (NCI-H226 lung): 29.1 µM
TGI (NCI-H23 lung): 11.4 µM
TGI (NCI-H460 lung): 27.5 µM
TGI (NCI-H522 lung): 5.2 µM
TGI (NCI/ADR-RES ovarian): 24 µM
TGI (OVCAR-3 ovarian): 16.7 µM
TGI (OVCAR-4 ovarian): 16.9 µM
TGI (OVCAR-5 ovarian): 22.3 µM
TGI (OVCAR-8 ovarian): 24.2 µM
TGI (PC-3 prostate): 17.5 µM
TGI (RPMI-8226 leukemia): 4.18 µM
TGI (SF-268 CNS): 40.5 µM
TGI (SF-295 CNS): 30.6 µM
TGI (SF-539 CNS): 12.6 µM
TGI (SK-MEL-2 melanoma): 11.8 µM
TGI (SK-MEL-28 melanoma): 10.8 µM
TGI (SK-MEL-5 melanoma): 14.7 µM
TGI (SK-OV-3 ovarian): 22.5 µM
TGI (SN12C renal): 21.4 µM
TGI (SNB-19 CNS): 35.5 µM
TGI (SNB-75 CNS): 21.3 µM
TGI (SR leukemia): 11.2 µM
TGI (SW-620 colon): 11.4 µM
TGI (T-47D breast): 13.8 µM
TGI (TK-10 renal): 5.16 µM
TGI (U251 CNS): 28.9 µM
TGI (UACC-257 melanoma): 6.1 µM
TGI (UACC-62 melanoma): 8.65 µM
TGI (UO-31 renal): 24.8 µM
